According to US8114880B2, “Piperidine or piperazine substituted tetrahydro-naphthalene-1-carboxylic acid MTP inhibiting compounds” (Janssen Pharmaceutica N.V., priority 2006, dated 2012):

Target: MTP (Homo sapiens, UniProt P55157)
Experiment: MTP assay (triglyceride transfer from donor to acceptor vesicles)
Assay type: biochemical
Conditions: MTP activity, percent triglyceride transfer from donor to acceptor vesicles, 37° C.
Description: MTP activity was measured using an assay similar to one described by J. R. Wetterau and D. B. Zilversmit in Chemistry and Physics of Lipids, 38, 205-222 (1985). To prepare the donor and acceptor vesicles, the appropriate lipids in chloroform were put into a glass test tube and dried under a stream of nitrogen. A buffer containing 15 mM Tris-HCl pH 7.5, 1 mM EDTA, 40 mM NaCl, 0.02% NaN3 (assay buffer) was added to the dried lipid. The mixture was vortexed briefly and the lipids were then allowed to hydrate for 20 minutes on ice. Vesicles were then prepared by bath sonication (Branson 2200) at room temperature for maximum 15 minutes. Butylated hydroxytoluene was included in all vesicle preparations at a concentration of 0.1%. The lipid transfer assay mixture contained donor vesicles (40 nmol phosphatidylcholine, 7.5 mol % of cardiolipin and 0.25 mol % glycerol tri [1-^14C]-oleate), acceptor vesicles (240 nmol phosphatidylcholine) and 5 mg BSA in a total volume of 675 μl in a 1.5 ml microcentrifuge tube. Test compounds were added dissolved in DMSO (0.13% final concentration). After 5 minutes of pre-incubation at 37° C., the reaction was started by the addition of MTP in 100 μl dialysis buffer. The reaction was stopped by the addition of 400 μl DEAE-52 cellulose pre-equilibrated in 15 mM Tris-HCl pH 7.5, 1 mM EDTA, 0.02% NaN3 (1:1, vol/vol). The mixture was agitated for 4 minutes and centrifuged for 2 minutes at maximum speed in an Eppendorf centrifuge (4° C.) to pellet the DEAE-52-bound donor vesicles. An aliquot of the supernatant containing the acceptor liposomes was counted and the [^14C]-counts were used to calculate the percent triglyceride transfer from donor to acceptor vesicles.

Chain of MTP (P55157 19-894, species assumed): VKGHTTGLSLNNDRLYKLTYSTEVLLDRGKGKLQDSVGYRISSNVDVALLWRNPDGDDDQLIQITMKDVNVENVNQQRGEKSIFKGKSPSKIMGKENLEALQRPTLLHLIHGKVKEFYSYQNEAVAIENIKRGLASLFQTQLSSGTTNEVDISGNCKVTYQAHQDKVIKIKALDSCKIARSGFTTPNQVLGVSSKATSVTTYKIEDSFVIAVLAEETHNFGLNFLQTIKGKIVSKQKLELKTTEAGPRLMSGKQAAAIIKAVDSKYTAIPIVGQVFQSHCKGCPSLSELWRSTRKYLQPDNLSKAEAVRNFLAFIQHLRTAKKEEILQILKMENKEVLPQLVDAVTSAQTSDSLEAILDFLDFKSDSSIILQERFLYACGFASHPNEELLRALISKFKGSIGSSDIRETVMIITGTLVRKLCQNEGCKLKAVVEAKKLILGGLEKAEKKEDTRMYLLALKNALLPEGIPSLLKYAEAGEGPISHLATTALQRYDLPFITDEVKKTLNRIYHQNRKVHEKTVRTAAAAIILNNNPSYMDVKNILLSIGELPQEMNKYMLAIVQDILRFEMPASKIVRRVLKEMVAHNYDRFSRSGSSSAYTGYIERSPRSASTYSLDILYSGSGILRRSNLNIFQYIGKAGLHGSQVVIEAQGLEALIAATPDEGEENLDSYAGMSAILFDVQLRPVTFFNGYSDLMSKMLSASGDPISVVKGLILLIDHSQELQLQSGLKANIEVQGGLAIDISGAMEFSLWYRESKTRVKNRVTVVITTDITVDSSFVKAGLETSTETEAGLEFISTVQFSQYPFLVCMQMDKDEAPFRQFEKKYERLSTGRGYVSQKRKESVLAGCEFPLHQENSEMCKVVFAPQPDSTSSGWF
Chain of MTP (P07237 18-508 partner, species assumed): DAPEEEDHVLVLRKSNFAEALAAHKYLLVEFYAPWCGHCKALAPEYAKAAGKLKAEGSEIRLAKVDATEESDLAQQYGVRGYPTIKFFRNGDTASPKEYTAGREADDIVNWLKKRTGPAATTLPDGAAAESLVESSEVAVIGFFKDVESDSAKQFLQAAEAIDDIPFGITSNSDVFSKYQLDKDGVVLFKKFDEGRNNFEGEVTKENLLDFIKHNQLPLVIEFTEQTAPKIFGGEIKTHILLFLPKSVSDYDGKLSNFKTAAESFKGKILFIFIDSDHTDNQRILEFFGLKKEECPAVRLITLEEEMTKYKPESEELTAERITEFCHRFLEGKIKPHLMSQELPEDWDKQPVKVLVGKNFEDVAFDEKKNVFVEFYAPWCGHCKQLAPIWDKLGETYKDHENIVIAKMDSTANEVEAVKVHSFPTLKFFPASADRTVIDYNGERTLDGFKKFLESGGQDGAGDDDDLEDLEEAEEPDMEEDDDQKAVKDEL

Row | SMILES | IC50
1 | COc1ccccc1C(=O)NC1CCN(C(=O)[C@H]2CC[C@@](C(=O)N[C@@H](C(=O)O)c3ccccc3)(c3ccccc3)c3ccccc32)CC1 [Co. No. 99] | > 10 µM
2 | COc1ccccc1C(=O)NC1CCN(C(=O)[C@H]2CC[C@@](C(=O)N[C@H](Cc3ccccc3)C(=O)O)(c3ccccc3)c3ccccc32)CC1 [Co. No. 100] | 6.05 µM
3 | COc1ccccc1C(=O)NC1CCN(C(=O)[C@H]2CC[C@@](C(=O)N[C@@H](C)C(=O)OC(C)(C)C)(c3ccccc3)c3ccccc32)CC1 [Co. No. 101] | 0.0042 µM
4 | COc1ccccc1C(=O)NC1CCN(C(=O)[C@H]2CC[C@@](C(=O)N[C@H](C(=O)OC(C)(C)C)c3ccccc3)(c3ccccc3)c3ccccc32)CC1 [Co. No. 111] | 0.219 µM
5 | COc1ccccc1C(=O)NC1CCN(C(=O)[C@H]2CC[C@@](C(=O)N[C@@H](Cc3ccc(O)cc3)C(=O)OC(C)(C)C)(c3ccccc3)c3ccccc32)CC1 [Co. No. 113] | 0.163 µM
6 | COc1ccccc1C(=O)NC1CCN(C(=O)[C@H]2CC[C@@](C(=O)N[C@@H](Cc3c[nH]c4ccccc34)C(=O)OC(C)(C)C)(c3ccccc3)c3ccccc32)CC1 [Co. No. 114] | 0.203 µM
7 | COc1ccccc1C(=O)NC1CCN(C(=O)[C@H]2CC[C@@](C(=O)N[C@@H](CC(N)=O)C(=O)OC(C)(C)C)(c3ccccc3)c3ccccc32)CC1 [Co. No. 115] | 0.301 µM
8 | COc1ccccc1C(=O)NC1CCN(C(=O)[C@H]2CC[C@@](C(=O)N[C@@H](C)C(=O)O)(c3ccccc3)c3ccccc32)CC1 [Co. No. 116] | 8.41 µM
9 | COc1ccccc1C(=O)NC1CCN(C(=O)[C@H]2CC[C@@](C(=O)NC(C(=O)O)C(=O)O)(c3ccccc3)c3ccccc32)CC1 [Co. No. 117] | 4.75 µM
10 | COc1ccccc1C(=O)NC1CCN(C(=O)[C@H]2CC[C@@](C(=O)N[C@@H](C(=O)O)C(C)C)(c3ccccc3)c3ccccc32)CC1 [Co. No. 118] | 0.887 µM
11 | COc1ccccc1C(=O)NC1CCN(C(=O)[C@H]2CC[C@@](C(=O)N[C@@H](CC(C)C)C(=O)O)(c3ccccc3)c3ccccc32)CC1 [Co. No. 119] | > 10 µM
12 | COc1ccccc1C(=O)NC1CCN(C(=O)[C@H]2CC[C@@](C(=O)N[C@@H](COC(C)(C)C)C(=O)O)(c3ccccc3)c3ccccc32)CC1 [Co. No. 120] | > 10 µM
13 | COc1ccccc1C(=O)NC1CCN(C(=O)[C@H]2CC[C@@](C(=O)N[C@@H](CCC(=O)O)C(=O)O)(c3ccccc3)c3ccccc32)CC1 [Co. No. 122] | 4.75 µM
14 | COc1ccccc1C(=O)NC1CCN(C(=O)[C@H]2CC[C@@](C(=O)N3CCC[C@H]3C(=O)O)(c3ccccc3)c3ccccc32)CC1 [Co. No. 123] | 3.82 µM
15 | COc1ccccc1C(=O)NC1CCN(C(=O)[C@H]2CC[C@@](C(=O)N[C@H](C(=O)O)c3ccccc3)(c3ccccc3)c3ccccc32)CC1 [Co. No. 124] | > 10 µM
16 | COc1ccccc1C(=O)NC1CCN(C(=O)[C@H]2CC[C@@](C(=O)N[C@@H](Cc3ccccc3)C(=O)O)(c3ccccc3)c3ccccc32)CC1 [Co. No. 125] | 8.61 µM
17 | COc1ccccc1C(=O)NC1CCN(C(=O)[C@H]2CC[C@@](C(=O)N[C@@H](Cc3ccc(O)cc3)C(=O)O)(c3ccccc3)c3ccccc32)CC1 [Co. No. 126] | 6.19 µM
18 | COc1ccccc1C(=O)NC1CCN(C(=O)[C@H]2CC[C@@](C(=O)N[C@@H](Cc3c[nH]c4ccccc34)C(=O)O)(c3ccccc3)c3ccccc32)CC1 [Co. No. 127] | > 10 µM
19 | COc1ccccc1C(=O)NC1CCN(C(=O)[C@H]2CC[C@@](C(=O)N[C@@H](CC(N)=O)C(=O)O)(c3ccccc3)c3ccccc32)CC1 [Co. No. 128] | > 10 µM
20 | COC(=O)[C@H](CCCCNC(C)=O)NC(=O)[C@@]1(c2ccccc2)CC[C@H](C(=O)N2CCC(NC(=O)c3ccccc3OC)CC2)c2ccccc21 [Co. No. 130] | 0.262 µM
21 | CCOC(=O)[C@H](CCCCNC(C)=O)NC(=O)[C@@]1(c2ccccc2)CC[C@H](C(=O)N2CCC(NC(=O)c3ccccc3OC)CC2)c2ccccc21 [Co. No. 131] | 0.0456 µM
22 | COc1ccccc1C(=O)NC1CCN(C(=O)[C@H]2CC[C@@](C(=O)N[C@@H](CCCCN)C(=O)O)(c3ccccc3)c3ccccc32)CC1 [Co. No. 132] | 0.355 µM
23 | CCOC(=O)CNC(=O)[C@@]1(c2ccccc2)CC[C@H](C(=O)N2CCC(NC(=O)c3cccn(C)c3=O)CC2)c2ccccc21 [Co. No. 133] | 0.796 µM
24 | CCOC(=O)[C@H](C)NC(=O)[C@@]1(c2ccccc2)CC[C@H](C(=O)N2CCC(NC(=O)c3cccn(C)c3=O)CC2)c2ccccc21 [Co. No. 135] | 1.34 µM

Row | SMILES | IC50
25 | CCOC(=O)[C@@H](C)NC(=O)[C@@]1(c2ccccc2)CC[C@H](C(=O)N2CCC(NC(=O)c3cccn(C)c3=O)CC2)c2ccccc21 [Co. No. 136] | 1.09 µM
26 | CCOC(=O)CN(C)C(=O)[C@@]1(c2ccccc2)CC[C@H](C(=O)N2CCC(NC(=O)c3cccn(C)c3=O)CC2)c2ccccc21 [Co. No. 137] | 0.474 µM
27 | CCOC(=O)[C@@H](NC(=O)[C@@]1(c2ccccc2)CC[C@H](C(=O)N2CCC(NC(=O)c3cccn(C)c3=O)CC2)c2ccccc21)C(C)C [Co. No. 139] | 0.826 µM
28 | CCOC(=O)[C@H](NC(=O)[C@@]1(c2ccccc2)CC[C@H](C(=O)N2CCC(NC(=O)c3cccn(C)c3=O)CC2)c2ccccc21)C(C)C [Co. No. 140] | 1.09 µM
29 | CCOC(=O)[C@H](CC(C)C)NC(=O)[C@@]1(c2ccccc2)CC[C@H](C(=O)N2CCC(NC(=O)c3cccn(C)c3=O)CC2)c2ccccc21 [Co. No. 141] | 1.86 µM
30 | CCOC(=O)[C@H](CO)NC(=O)[C@@]1(c2ccccc2)CC[C@H](C(=O)N2CCC(NC(=O)c3cccn(C)c3=O)CC2)c2ccccc21 [Co. No. 142] | > 10 µM
31 | CCOC(=O)C[C@H](NC(=O)[C@@]1(c2ccccc2)CC[C@H](C(=O)N2CCC(NC(=O)c3cccn(C)c3=O)CC2)c2ccccc21)C(=O)OCC [Co. No. 143] | 1.92 µM
32 | CCOC(=O)C1CCCCN1C(=O)[C@@]1(c2ccccc2)CC[C@H](C(=O)N2CCC(NC(=O)c3cccn(C)c3=O)CC2)c2ccccc21 (stereo partly drawn) [Co. No. 144] | 3.83 µM
33 | COC(=O)CC[C@H](NC(=O)[C@@]1(c2ccccc2)CC[C@H](C(=O)N2CCC(NC(=O)c3cccn(C)c3=O)CC2)c2ccccc21)C(=O)OC [Co. No. 145] | 5.38 µM
34 | CCOC(=O)CC[C@H](NC(=O)[C@@]1(c2ccccc2)CC[C@H](C(=O)N2CCC(NC(=O)c3cccn(C)c3=O)CC2)c2ccccc21)C(=O)OCC [Co. No. 146] | 0.776 µM
35 | CCOC(=O)[C@@H]1CCCN1C(=O)[C@@]1(c2ccccc2)CC[C@H](C(=O)N2CCC(NC(=O)c3cccn(C)c3=O)CC2)c2ccccc21 [Co. No. 149] | > 10 µM
36 | CCOC(=O)[C@H]1CCCN1C(=O)[C@@]1(c2ccccc2)CC[C@H](C(=O)N2CCC(NC(=O)c3cccn(C)c3=O)CC2)c2ccccc21 [Co. No. 150] | > 10 µM
37 | COC(=O)[C@@H]1C[C@@H](O)CN1C(=O)[C@@]1(c2ccccc2)CC[C@H](C(=O)N2CCC(NC(=O)c3cccn(C)c3=O)CC2)c2ccccc21 [Co. No. 151] | > 10 µM
38 | CCOC(=O)[C@H](NC(=O)[C@@]1(c2ccccc2)CC[C@H](C(=O)N2CCC(NC(=O)c3cccn(C)c3=O)CC2)c2ccccc21)c1ccccc1 [Co. No. 152] | 1.63 µM
39 | CCOC(=O)[C@@H](NC(=O)[C@@]1(c2ccccc2)CC[C@H](C(=O)N2CCC(NC(=O)c3cccn(C)c3=O)CC2)c2ccccc21)c1ccccc1 [Co. No. 153] | 1.11 µM
40 | CCOC(=O)[C@H](Cc1ccccc1)NC(=O)[C@@]1(c2ccccc2)CC[C@H](C(=O)N2CCC(NC(=O)c3cccn(C)c3=O)CC2)c2ccccc21 [Co. No. 154] | 1.85 µM
41 | CCOC(=O)[C@@H](Cc1ccccc1)NC(=O)[C@@]1(c2ccccc2)CC[C@H](C(=O)N2CCC(NC(=O)c3cccn(C)c3=O)CC2)c2ccccc21 [Co. No. 155] | 0.731 µM
42 | CCOC(=O)C(Cc1ccc(O)cc1)NC(=O)[C@@]1(c2ccccc2)CC[C@H](C(=O)N2CCC(NC(=O)c3cccn(C)c3=O)CC2)c2ccccc21 (stereo partly drawn) [Co. No. 156] | 1.53 µM
43 | CCOC(=O)C(Cc1c[nH]c2ccccc12)NC(=O)[C@@]1(c2ccccc2)CC[C@H](C(=O)N2CCC(NC(=O)c3cccn(C)c3=O)CC2)c2ccccc21 (stereo partly drawn) [Co. No. 157] | 1.65 µM
44 | COC(=O)CNC(=O)[C@@]1(c2ccccc2)CC[C@H](C(=O)N2CCC(NC(=O)c3cccn(C)c3=O)CC2)c2ccccc21 [Co. No. 158] | 0.847 µM
45 | Cn1cccc(C(=O)NC2CCN(C(=O)C3CC[C@@](C(=O)NCC(=O)OC(C)(C)C)(c4ccccc4)c4ccccc43)CC2)c1=O (stereo partly drawn) [Co. No. 160] | 0.366 µM
46 | C[C@H](NC(=O)[C@@]1(c2ccccc2)CC[C@H](C(=O)N2CCC(NC(=O)c3cccn(C)c3=O)CC2)c2ccccc21)C(=O)OC(C)(C)C [Co. No. 161] | 0.458 µM
47 | C[C@@H](NC(=O)[C@@]1(c2ccccc2)CC[C@H](C(=O)N2CCC(NC(=O)c3cccn(C)c3=O)CC2)c2ccccc21)C(=O)OC(C)(C)C [Co. No. 162] | 1.79 µM
48 | CN(CC(=O)OC(C)(C)C)C(=O)[C@@]1(c2ccccc2)CC[C@H](C(=O)N2CCC(NC(=O)c3cccn(C)c3=O)CC2)c2ccccc21 [Co. No. 163] | 1.45 µM
